In patent publication US20160207930A1 (LEO PHARMA A/S, priority 2013, published 2016):

How the values were obtained:
[1] = Hepatic intrinsic clearance following incubation in human liver microsomes; type: in vitro ADME; details: 0.5 μM test compound, NADPH, 0-30 min, scaled to g liver
Procedure, shortened: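 Compound incubated at 37° C with microsomes diluted to 0.55 mg/mL protein in 50 mM potassium phosphate pH 7.4 plus NADPH regenerating system; sampled 0–30 min and analysed by LC-MS/MS. Clint from ln(% parent remaining) slope, scaled to mL/min/g liver; Eh derived assuming 25.7 g/kg liver, 20.7 mL/min/kg blood flow.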

NK1 Receptor = target: T1, NK1 Receptor (Homo sapiens, UniProt P25103); test: NK1 receptor mediated intracellular [Ca2+] mobilization in U251 MG cells using FLIPR; type: cell-based; details: antagonism of Substance P (EC80), Fluo-4, read-out: NK1R mediated intracellular [Ca^2+] mobilization IC 50
T1 construct: Measurement of NK1 Receptor Mediated Intracellular [Ca^2+]; Mobilization in U251 MG Cells Using FLIPR; endogenous in cells; host or cells: U251 MG cells
Procedure, shortened: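 Fluo-4-loaded U251 MG cells preincubated with compound (0.5% DMSO final), checked 5 min for agonism, then 10 min at 37 °C before Substance P at EC80. Peak fluorescence change on FLIPR, normalized to 100 nM Aprepitant maximal response; IC50 by four-parameter logistic fit, reported as pIC50.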

T1 sequence (P25103 whole entry): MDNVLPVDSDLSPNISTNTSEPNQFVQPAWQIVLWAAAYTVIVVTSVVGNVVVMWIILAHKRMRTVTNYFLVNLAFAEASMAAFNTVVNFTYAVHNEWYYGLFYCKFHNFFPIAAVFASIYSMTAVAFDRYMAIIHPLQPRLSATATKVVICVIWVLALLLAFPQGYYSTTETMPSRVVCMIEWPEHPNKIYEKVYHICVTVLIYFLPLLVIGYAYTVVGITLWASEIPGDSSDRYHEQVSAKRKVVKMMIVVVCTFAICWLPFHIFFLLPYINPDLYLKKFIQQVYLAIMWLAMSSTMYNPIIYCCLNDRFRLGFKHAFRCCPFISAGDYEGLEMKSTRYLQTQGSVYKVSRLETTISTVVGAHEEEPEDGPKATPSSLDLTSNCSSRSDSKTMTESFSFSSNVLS

| Human in vitro Clint [1] | IC50 (NK1 Receptor) | Structure (SMILES) |
| --- | --- | --- |
| >200 mL/min/g | 0.119 nM | Cc1cccc([C@H]2[C@@H]3CC(CCO)(CCO)C(=O)N3CCN2C(=O)N(C)[C@H](C)c2cc(C(F)(F)F)cc(C(F)(F)F)c2)c1C [Compound 39, (1S,8aS)—N—((R)-1-(3,5-bis(trifluoromethyl)phenyl)ethyl)-1-(2,3-dimethylphenyl)-7,7-bis(2-hydroxyethyl)-N-methyl-6-oxohexahydropyrrolo[1,2-a]pyrazine-2(1H)-carboxamide] |
| >200 mL/min/g | 0.197 nM | Cc1cccc([C@H]2[C@@H]3CCC(=O)N3CCN2C(=O)N(C)[C@H](C)c2cc(C(F)(F)F)cc(C(F)(F)F)c2)c1C [Compound 40, (1S,8aS)—N—((R)-1-(3,5-bis(trifluoromethyl)phenyl)ethyl)-1-(2,3-dimethylphenyl)-N-methyl-6-oxo-hexahydropyrrolo[1,2-a]pyrazine-2(1H)-carboxamide] |
| >200 mL/min/g | 0.111 nM | CCc1cc([C@@H](C)N(C)C(=O)N2CCN3C(=O)CC[C@H]3[C@@H]2c2cccc(C)c2C)cc(C(F)(F)F)c1 [Compound 41, (1S,8aS)-1-(2,3-dimethylphenyl)-N—((R)-1-(3-ethyl-5-(trifluoromethyl)phenyl)ethyl)-N-methyl-6-oxo-hexahydropyrrolo[1,2-a]pyrazine-2(1H)-carboxamide] |
| >200 mL/min/g | 0.306 nM | Cc1cccc([C@H]2[C@@H]3CCC(=O)N3CCN2C(=O)N(C)[C@H](C)c2cc(C(C)C)cc(C(F)(F)F)c2)c1C [Compound 42] |
| >200 mL/min/g | 100 nM | Cc1cccnc1[C@@H]1[C@@H]2CCC(=O)N2CCN1C(=O)N(C)[C@H](C)c1cc(C(F)(F)F)cc(C(F)(F)F)c1 [Compound 44, (1S,8aS)—N—((R)-1-(3,5-bis(trifluoromethyl)phenyl)ethyl)-N-methyl-1-(3-methylpyridin-2-yl)-6-oxo-hexahydropyrrolo[1,2-a]pyrazine-2(1H)-carboxamide] |
| <10 mL/min/g | 0.772 nM | Cc1ccncc1[C@H]1[C@@H]2CCC(=O)N2CCN1C(=O)N(C)[C@H](C)c1cc(C(F)(F)F)cc(C(F)(F)F)c1 [Compound 45, (1S,8aS)—N—((R)-1-(3,5-bis(trifluoromethyl)phenyl)ethyl)-N-methyl-1-(4-methylpyridin-3-yl)-6-oxo-hexahydropyrrolo[1,2-a]pyrazine-2(1H)-carboxamide] |
| <10 mL/min/g | 0.167 nM | Cc1cnccc1[C@H]1[C@@H]2CCC(=O)N2CCN1C(=O)N(C)[C@H](C)c1cc(C(F)(F)F)cc(C(F)(F)F)c1 [Compound 46, (1S,8aS)—N—((R)-1-(3,5-bis(trifluoromethyl)phenyl)ethyl)-N-methyl-1-(3-methylpyridin-4-yl)-6-oxohexahydropyrrolo[1,2-a]pyrazine-2(1H)-carboxamide] |
| >200 mL/min/g | 0.249 nM | Cc1cscc1[C@H]1[C@@H]2CCC(=O)N2CCN1C(=O)N(C)[C@H](C)c1cc(C(F)(F)F)cc(C(F)(F)F)c1 [Compound 48] |
| >200 mL/min/g | 0.999 nM | CCc1cc([C@@H](C)N(C)C(=O)N2CCN3C(=O)CC[C@H]3[C@@H]2c2cscc2C)cc(C(F)(F)F)c1 [Compound 49, (1S,8aS)—N—((R)-1-(3-ethyl-5-(trifluoromethyl)phenyl)ethyl)-N-methyl-1-(4-methylthiophen-3-yl)-6-oxohexahydropyrrolo[1,2-a]pyrazine-2(1H)-carboxamide] |
| >200 mL/min/g | 0.08 nM | Cc1ccsc1[C@H]1[C@@H]2CCC(=O)N2CCN1C(=O)N(C)[C@H](C)c1cc(C(F)(F)F)cc(C(F)(F)F)c1 [Compound 50] |
| >200 mL/min/g | 0.055 nM | CCc1cc([C@@H](C)N(C)C(=O)N2CCN3C(=O)CC[C@H]3[C@@H]2c2sccc2C)cc(C(F)(F)F)c1 [Compound 51, (1R,8aS)—N—((R)-1-(3-ethyl-5-(trifluoromethyl)phenyl)ethyl)-N-methyl-1-(3-methylthiophen-2-yl)-6-oxohexahydropyrrolo[1,2-a]pyrazine-2(1H)-carboxamide] |
